Among the data in patent US20140234359A1, “PLANT VIRAL VACCINES AND THERAPEUTICS” (priority 2011, published 2014) are cell death values, retold here.

The subject of this assay is T-24 human bladder cancer cells. As to the kind of experiment: Cell death of T-24 cells after anti-viral treatment, flow cytometry. In kind it is cell-based. Conditions: 10 μM efavirenz, 48 hours, vs methanol control. As to the method: T-24 human bladder cells were grown in a 12 well plate in a total volume of 2 mL of 10% FBS complete RPMI. Cells were left untreated or treated with 2 μL of methanol (Sigma-Aldrich) or treated with 10 μM efavirenz (Toronto Research Chemicals Cat# E425000). Cells were grown in CO2 incubator at 37° C. for 48 hours. After 48 hours, cells were harvested and counted using trypan blue on a hemocytometer.
The human bladder cancer T24 cell line was used to determine the effects of and anti-viral treatment on human tumor cells infected with plant virus. The T24 cells were grown in culture and then treated or not with the anti-reverse transcriptase drug, efavirenz, for twenty four or forty eight hours. Cell death assays were performed in triplicate. […] It is expected that treatment of the bladder cancer cells with a TLR activator to activate new virus replication in combination with the anti-viral drug will be useful in increasing cell death further. FIG. 2a depicts flow cytometer results on T-24 Human bladder cancer cells treated with efavirenz or methanol control for 48 hours. FIG. 2b is a bar graph depiction of the data.
For orientation: In flow cytometry, cells or beads pass a laser one at a time.

As for `O=C1Nc2ccc(Cl)cc2[C@@](C#CC2CC2)(C(F)(F)F)O1` [efavirenz], the cell death entry is “increased death”. Where the note is “listed as Efavirenz”, the cell death result was “effective in killing a percentage of the cells”.
